From PubChem BioAssay AID1259407 (Chemical Carcinogenesis Research Information System (CCRIS), 2018)
The source made the active and inactive calls. The rule behind the calls is not given here.

Tested on: CCRIS mutagenicity, Ames/micronucleus/aberration tests
Experiment: CCRIS mutagenicity studies
[1] = Test System: AMES SALMONELLA TYPHIMURIUM, Strain/Indicator: TA98, Metabolic Activation: NONE, Method: PREINCUBATION
[2] = Test System: AMES SALMONELLA TYPHIMURIUM, Strain/Indicator: TA98, Metabolic Activation: NONE, Method: STANDARD PLATE
[3] = Test System: AMES SALMONELLA TYPHIMURIUM, Strain/Indicator: TA98, Metabolic Activation: RAT, LIVER, S-9, AROCLOR 1254, Method: STANDARD PLATE
[4] = Test System: AMES SALMONELLA TYPHIMURIUM, Strain/Indicator: TA100, Metabolic Activation: NONE, Method: PREINCUBATION
[5] = Test System: AMES SALMONELLA TYPHIMURIUM, Strain/Indicator: TA100, Metabolic Activation: NONE, Method: STANDARD PLATE
[6] = Test System: AMES SALMONELLA TYPHIMURIUM, Strain/Indicator: TA100, Metabolic Activation: RAT, LIVER, S-9, AROCLOR 1254, Method: STANDARD PLATE
[7] = Test System: AMES SALMONELLA TYPHIMURIUM, Strain/Indicator: TA1535, Metabolic Activation: NONE, Method: PREINCUBATION
[8] = Test System: AMES SALMONELLA TYPHIMURIUM, Strain/Indicator: TA1538, Metabolic Activation: NONE, Method: STANDARD PLATE
[9] = Test System: AMES SALMONELLA TYPHIMURIUM, Strain/Indicator: TA1538, Metabolic Activation: RAT, LIVER, S-9, AROCLOR 1254, Method: STANDARD PLATE

## CCCCC(CC)COC(=O)c1ccc(N(C)N=O)cc1 (centres undefined)
Test System: AMES SALMONELLA TYPHIMURIUM, Strain/Indicator: TA98, Metabolic Activation: HAMSTER, LIVER, S-9, AROCLOR 1254, Method: PREINCUBATION
  mutagenic call: inactive; negative
Test System: AMES SALMONELLA TYPHIMURIUM, Strain/Indicator: TA98, Metabolic Activation: HAMSTER, LIVER, S-9, AROCLOR 1254, Method: STANDARD PLATE
  mutagenic call: inactive; negative
[1]
  mutagenic call: inactive; negative
[2]
  mutagenic call: inactive; negative
Test System: AMES SALMONELLA TYPHIMURIUM, Strain/Indicator: TA98, Metabolic Activation: RAT, LIVER, S-9, AROCLOR 1254, Method: PREINCUBATION
  mutagenic call: inactive; negative
[3]
  mutagenic call: inactive; negative
Test System: AMES SALMONELLA TYPHIMURIUM, Strain/Indicator: TA100, Metabolic Activation: HAMSTER, LIVER, S-9, AROCLOR 1254 (1.5 OR 3.6 MG), Method: PREINCUBATION
  mutagenic call: inactive; negative
Test System: AMES SALMONELLA TYPHIMURIUM, Strain/Indicator: TA100, Metabolic Activation: HAMSTER, LIVER, S-9, AROCLOR 1254, Method: PREINCUBATION
  mutagenic call: inactive; negative
Test System: AMES SALMONELLA TYPHIMURIUM, Strain/Indicator: TA100, Metabolic Activation: HAMSTER, LIVER, S-9, AROCLOR 1254, Method: STANDARD PLATE
  mutagenic call: inactive; negative
[4]
  mutagenic call: inactive; negative
[5]
  mutagenic call: inactive; negative
Test System: AMES SALMONELLA TYPHIMURIUM, Strain/Indicator: TA100, Metabolic Activation: RAT, LIVER, S-9, AROCLOR 1254 (1.5 OR 2.2 MG), Method: PREINCUBATION
  mutagenic call: inactive; negative
Test System: AMES SALMONELLA TYPHIMURIUM, Strain/Indicator: TA100, Metabolic Activation: RAT, LIVER, S-9, AROCLOR 1254, Method: PREINCUBATION
  mutagenic call: inactive; negative
[6]
  mutagenic call: inactive; negative
Test System: AMES SALMONELLA TYPHIMURIUM, Strain/Indicator: TA1535, Metabolic Activation: HAMSTER, LIVER, S-9, AROCLOR 1254 (1.5 OR 3.6 MG), Method: PREINCUBATION
  mutagenic call: inactive; negative
Test System: AMES SALMONELLA TYPHIMURIUM, Strain/Indicator: TA1535, Metabolic Activation: HAMSTER, LIVER, S-9, AROCLOR 1254, Method: PREINCUBATION
  mutagenic call: inactive; negative
Test System: AMES SALMONELLA TYPHIMURIUM, Strain/Indicator: TA1535, Metabolic Activation: HAMSTER, LIVER, S-9, AROCLOR 1254, Method: STANDARD PLATE
  mutagenic call: inactive; negative
[7]
  mutagenic call: inactive; negative
Test System: AMES SALMONELLA TYPHIMURIUM, Strain/Indicator: TA1535, Metabolic Activation: NONE, Method: STANDARD PLATE
  mutagenic call: inactive; negative
Test System: AMES SALMONELLA TYPHIMURIUM, Strain/Indicator: TA1535, Metabolic Activation: RAT, LIVER, S-9, AROCLOR 1254 (1.5 OR 2.2 MG), Method: PREINCUBATION
  mutagenic call: inactive; negative
Test System: AMES SALMONELLA TYPHIMURIUM, Strain/Indicator: TA1535, Metabolic Activation: RAT, LIVER, S-9, AROCLOR 1254, Method: PREINCUBATION
  mutagenic call: inactive; negative
Test System: AMES SALMONELLA TYPHIMURIUM, Strain/Indicator: TA1535, Metabolic Activation: RAT, LIVER, S-9, AROCLOR 1254, Method: STANDARD PLATE
  mutagenic call: inactive; negative
Test System: AMES SALMONELLA TYPHIMURIUM, Strain/Indicator: TA1537, Metabolic Activation: HAMSTER, LIVER, S-9, AROCLOR 1254, Method: PREINCUBATION
  mutagenic call: inactive; negative
Test System: AMES SALMONELLA TYPHIMURIUM, Strain/Indicator: TA1537, Metabolic Activation: HAMSTER, LIVER, S-9, AROCLOR 1254, Method: STANDARD PLATE
  mutagenic call: inactive; negative
Test System: AMES SALMONELLA TYPHIMURIUM, Strain/Indicator: TA1537, Metabolic Activation: NONE, Method: PREINCUBATION
  mutagenic call: inactive; negative
Test System: AMES SALMONELLA TYPHIMURIUM, Strain/Indicator: TA1537, Metabolic Activation: NONE, Method: STANDARD PLATE
  mutagenic call: inactive; negative
Test System: AMES SALMONELLA TYPHIMURIUM, Strain/Indicator: TA1537, Metabolic Activation: RAT, LIVER, S-9, AROCLOR 1254, Method: PREINCUBATION
  mutagenic call: inactive; negative
Test System: AMES SALMONELLA TYPHIMURIUM, Strain/Indicator: TA1537, Metabolic Activation: RAT, LIVER, S-9, AROCLOR 1254, Method: STANDARD PLATE
  mutagenic call: inactive; negative
Test System: AMES SALMONELLA TYPHIMURIUM, Strain/Indicator: TA1538, Metabolic Activation: HAMSTER, LIVER, S-9, AROCLOR 1254, Method: PREINCUBATION
  mutagenic call: inactive; negative
Test System: AMES SALMONELLA TYPHIMURIUM, Strain/Indicator: TA1538, Metabolic Activation: HAMSTER, LIVER, S-9, AROCLOR 1254, Method: STANDARD PLATE
  mutagenic call: inactive; negative
Test System: AMES SALMONELLA TYPHIMURIUM, Strain/Indicator: TA1538, Metabolic Activation: NONE, Method: PREINCUBATION
  mutagenic call: inactive; negative
[8]
  mutagenic call: inactive; negative
Test System: AMES SALMONELLA TYPHIMURIUM, Strain/Indicator: TA1538, Metabolic Activation: RAT, LIVER, S-9, AROCLOR 1254, Method: PREINCUBATION
  mutagenic call: inactive; negative
[9]
  mutagenic call: inactive; negative
Test System: MOUSE LYMPHOMA, Strain/Indicator: L5178Y (TK+/TK-), Metabolic Activation: HAMSTER, LIVER, S-9, AROCLOR 1254, Method: SUSPENSION/PLATE
  mutagenic call: inactive; negative

## c1ccc2c(c1)Oc1ccccc1S2
Test System: AMES SALMONELLA TYPHIMURIUM, Strain/Indicator: TA97, Metabolic Activation: HAMSTER, LIVER, S-9, AROCLOR 1254 (10 OR 30%), Method: PREINCUBATION
  mutagenic call: inactive; negative
Test System: AMES SALMONELLA TYPHIMURIUM, Strain/Indicator: TA97, Metabolic Activation: NONE, Method: PREINCUBATION
  mutagenic call: inactive; negative
Test System: AMES SALMONELLA TYPHIMURIUM, Strain/Indicator: TA97, Metabolic Activation: RAT, LIVER, S-9, AROCLOR 1254 (10 OR 30%), Method: PREINCUBATION
  mutagenic call: inactive; negative
Test System: AMES SALMONELLA TYPHIMURIUM, Strain/Indicator: TA98, Metabolic Activation: HAMSTER, LIVER, S-9, AROCLOR 1254 (10 OR 30%), Method: PREINCUBATION
  mutagenic call: inactive; negative
[1]
  mutagenic call: inactive; negative
Test System: AMES SALMONELLA TYPHIMURIUM, Strain/Indicator: TA98, Metabolic Activation: RAT, LIVER, S-9, AROCLOR 1254 (10 OR 30%), Method: PREINCUBATION
  mutagenic call: inactive; negative
Test System: AMES SALMONELLA TYPHIMURIUM, Strain/Indicator: TA100, Metabolic Activation: HAMSTER, LIVER, S-9, AROCLOR 1254 (10 OR 30%), Method: PREINCUBATION
  mutagenic call: inactive; negative
[4]
  mutagenic call: inactive; negative
Test System: AMES SALMONELLA TYPHIMURIUM, Strain/Indicator: TA100, Metabolic Activation: RAT, LIVER, S-9, AROCLOR 1254 (10 OR 30%), Method: PREINCUBATION
  mutagenic call: inactive; negative
Test System: AMES SALMONELLA TYPHIMURIUM, Strain/Indicator: TA1535, Metabolic Activation: HAMSTER, LIVER, S-9, AROCLOR 1254 (10 OR 30%), Method: PREINCUBATION
  mutagenic call: inactive; negative
[7]
  mutagenic call: inactive; negative
Test System: AMES SALMONELLA TYPHIMURIUM, Strain/Indicator: TA1535, Metabolic Activation: RAT, LIVER, S-9, AROCLOR 1254 (10 OR 30%), Method: PREINCUBATION
  mutagenic call: inactive; negative

## CCOc1cc(N=Nc2ccccc2)ccc1N=Nc1c(S(=O)(=O)O)cc2ccc(N)cc2c1O
[2]
  mutagenic call: inactive; negative
[3]
  mutagenic call: active; positive
[5]
  mutagenic call: inactive; negative
[6]
  mutagenic call: active; positive
[8]
  mutagenic call: inactive; negative
[9]
  mutagenic call: active; positive

## O[C@H]1C=Cc2c(ccc3cc4c(ccc5ccccc54)cc23)[C@@H]1O
[6]
  mutagenic call: active; positive
